Laboratory results published in patent EP0033789A1, “2-alpha-Methyl-dopaminimino-6,7-dihydroxy-1,2,3,4-tetrahydronaphthalene, its salts, and a process for preparation thereof” (priority 1980, dated 1981).
Read-outs that look alike come from different tables or passages of the source.

Test system: anesthetized, open-chested dogs
Assay: Inotropic, chronotropic and pressor/depressor activities in anesthetized, open-chested dogs (Walton-Brodie strain gauge, ventricular and aortic catheters)
Type: in vivo
Conditions: for ED50 / ED (100% increase) / ED (75% increase) / ED (150% increase): Canis lupus familiaris; for ED50: read-out: Inotropic Potency CF50; for ED (100% increase): read-out: Inotropic Potency CF100; for ED (75% increase): read-out: Inotropic Potency dP/dt75; for ED (150% increase): read-out: Inotropic Potency dP/dt150; for Cardioselectivity: Change in diastolic blood pressure obtained at CF50 / Inotropic Selectivity: Change in heart rate obtained at CF50: at the dose giving 50% increase in cardiac contractile force; for Cardioselectivity: Change in diastolic blood pressure obtained at dP/dt75 / Inotropic Selectivity: Change in heart rate obtained at dP/dt75: at the dose giving 75% increase in left ventricular dP/dt; for Cardioselectivity: Change in diastolic blood pressure obtained at CF100 / Inotropic Selectivity: Change in heart rate obtained at CF100: at the dose giving 100% increase in cardiac contractile force; for Cardioselectivity: Change in diastolic blood pressure obtained at dP/dt150 / Inotropic Selectivity: Change in heart rate obtained at dP/dt150: at the dose giving 150% increase in left ventricular dP/dt
Procedure: The following tests were conducted: • In anesthetized, open-chested dogs, instrumented with a Walton-Brodie strain gauge to measure cardiac contractile force, a ventricular catheter to measure left ventricular dP/dt and an aortic catheter to measure diastolic blood pressure and heart rate. Contractile force and L.V. dP/dt are indices of cardiac contractility and provide information on the inotropic state of the heart. The experimental standard drugs are compared by normalizing pressor/depressor and heart rate responses to a given inotropic effect. Cardioselective inotropic agents will produce minimal diastolic pressure changes for any given inotropic effect. Likewise, inotropic selective agents will produce minimal heart rate changes for any given inotropic effect.

[1] = dose required to produce 50% increase in cardiac contractile force (CF), means ± SEM
[2] = dose required to produce 75% increase in left ventricular dP/dt, means ± SEM
[3] = dose required to produce 100% increase in cardiac contractile force (CF), means ± SEM
[4] = dose required to produce 150% increase in left ventricular dP/dt, means ± SEM

Row | Structure (SMILES) | ED50 [µg/kg] | ED (100% increase) [µg/kg] | ED (75% increase) [µg/kg] | ED (150% increase) [µg/kg] | Cardioselectivity: Change in diastolic blood pressure obtained at CF50 (means ± SEM) [mm Hg] | Inotropic Selectivity: Change in heart rate obtained at CF50 (means ± SEM) [BPM] | Cardioselectivity: Change in diastolic blood pressure obtained at dP/dt75 (means ± SEM) | Inotropic Selectivity: Change in heart rate obtained at dP/dt75 (means ± SEM) [BPM] | Cardioselectivity: Change in diastolic blood pressure obtained at CF100 (means ± SEM) [mm Hg] | Inotropic Selectivity: Change in heart rate obtained at CF100 (means ± SEM) [BPM] | Cardioselectivity: Change in diastolic blood pressure obtained at dP/dt150 (means ± SEM) [mm Hg] | Inotropic Selectivity: Change in heart rate obtained at dP/dt150 (means ± SEM) [BPM] | ED50 [1] [µg/kg] | ED (75% increase) [2] [µg/kg] | ED (100% increase) [3] [µg/kg] | ED (150% increase) [4] [µg/kg]
1 | NC1CCc2cc(O)c(O)cc2C1 (stereo not shown) [C, 2-amino-6,7-dihydroxy-1,2,3,4-tetrahydro-naphthalene] | 44.9 ± 3.3 | 119 ± 34.7 | 40.4 ± 3.1 | 75.6 ± 5.8 | 31 ± 9 | -12 ± 9 | 30 + 5 mm Hg | -12 ± 10 | 61 ± 10 | 21 ± 17 | 51 ± 5 | 5 ± 8 | – | – | – | –
2 | CC(CCc1ccc(O)cc1)NC1CCc2cc(O)c(O)cc2C1 (stereo not shown) [B, 2-(3-p-hydroxyphenyl-1-methylpropyl) amino-6,7-dihydroxy-1,2,3,4-tetrahydronaphthalene] | – | – | – | – | -13 | -17 | 37 mm Hg | 0 | 57 | 15 | 75 | 32 | 56.3 | 125 | 198 | 359
3 | CC(C)NCC(O)c1ccc(O)c(O)c1 (stereo not shown) [F, 4-(1-hydroxy-2-((1-methylethyl)-amino)ethyl)-1,2-benzenediol] | – | – | – | – | -6 ± 2 | 14 ± 2 | -6 ± 2 mm Hg | 14 ± 1 | -15 ± 2 | 34 ± 3 | -16 ± 2 | 41 ± 5 | – | 0.04 ± 0.01 | 0.09 ± 0.02 | 0.14 ± 0.05
4 | NCCc1ccc(O)c(O)c1 [E, 4-(2-aminoethyl)-1,2-benzenediol] | – | – | – | – | -20 ± 6 | 5 ± 5 | -20 ± 7 mm Hg | 5 ± 6 | -12 ± 9 | 12 ± 5 | -10 ± 8 | 13 ± 6 | 9.1 ± 1 | 9.9 ± 0.7 | 19.6 ± 2.7 | 23.7 ± 3
5 | CC(CCc1ccc(O)cc1)NCCc1ccc(O)c(O)c1 (racemic) [D, (±)-4-(2(3-p-hydroxyphenyl-1-methylpropyl)amino) ethyl-1,2-benzenediol] | – | – | – | – | 3 ± 1 | 3 ± 1 | 4 ± 1 mm Hg | 3 ± 1 | 4 ± 3 | 17 ± 5 | 3 ± 3 | 13 ± 2 | 1.4 ± 0.2 | – | 4.4 | 4 ± 0.6
6 | COc1cc2c(cc1OC)CC(NC(C)CCc1ccc(O)cc1)CC2 (stereo not shown) [A, 2-(3-p-hydroxyphenyl-1-methylpropyl) amino-6,7-dimethoxy-1,2,3,4-tetrahydronaphthalene] | – | – | – | – | -17 | 5 | -23 mm Hg | 10 | -27 | 14 | -40 | 27 | 158 | 262 | 333 | 756
